Test results as given in paper PMC10058641 (Molecular cell, 2022).

T1: COQ7 (His6-GB1-Nd38COQ7) (Homo sapiens, UniProt Q99807)
T1 sequence (Q99807 39-217): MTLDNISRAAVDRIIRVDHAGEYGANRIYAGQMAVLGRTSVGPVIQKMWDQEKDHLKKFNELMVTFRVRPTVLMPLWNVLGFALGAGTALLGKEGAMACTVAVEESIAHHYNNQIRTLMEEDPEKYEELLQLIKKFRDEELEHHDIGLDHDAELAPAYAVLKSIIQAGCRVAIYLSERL

T2: His6-Nd79COQ9 (human COQ9 residues 79-318 with an N-terminal His tag) (human, UniProt O75208 79-318)
T2 sequence (looked up): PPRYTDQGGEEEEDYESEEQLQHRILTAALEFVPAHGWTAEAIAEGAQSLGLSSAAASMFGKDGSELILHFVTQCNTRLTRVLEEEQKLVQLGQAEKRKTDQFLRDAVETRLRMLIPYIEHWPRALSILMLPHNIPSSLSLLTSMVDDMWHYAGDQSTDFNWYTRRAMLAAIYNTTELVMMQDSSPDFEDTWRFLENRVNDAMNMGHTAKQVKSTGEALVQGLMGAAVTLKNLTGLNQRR


Columns and labels:
COQ7 (His6-GB1-Nd38COQ7) = target: T1, COQ7 (His6-GB1-Nd38COQ7); test: NADH fluorescence loss; format: biochemical; details: 250 uM DMQ0, 5 uM protein, 20 mM HEPES pH 7.6, 200 mM NaCl, 30 °C
[1] = target: T2, His6-Nd79COQ9 (human COQ9 residues …); test: SEC + native gel or EMSA

stoichiometry N [1]	Molecule	NADH oxidation (COQ7 (His6-GB1-Nd38COQ7))
	NC(=O)C1=CN([C@@H]2O[C@H](COP(=O)(O)OP(=O)(O)OC[C@H]3O[C@@H](n4cnc5c(N)ncnc54)[C@H](O)[C@@H]3O)[C@@H](O)[C@H]2O)C=CC1 [NADH]	wild type COQ7 slowly oxidized NADH and transferred electrons to a quinone acceptor
1	GB1-Nd38COQ7 (human COQ7 residues 39-217 with N-terminal GB1 tag) (enzyme, UniProt Q99807 39-217, looked up) MTLDNISRAAVDRIIRVDHAGEYGANRIYAGQMAVLGRTSVGPVIQKMWDQEKDHLKKFNELMVTFRVRPTVLMPLWNVLGFALGAGTALLGKEGAMACTVAVEESIAHHYNNQIRTLMEEDPEKYEELLQLIKKFRDEELEHHDIGLDHDAELAPAYAVLKSIIQAGCRVAIYLSERL	
